“Also recorded” adds a separate entry of the source.
Columns and labels:
[1] = target: T1, LOX (lysyl oxidase) in ATRT cells (Homo sapiens, UniProt P28300); test: LOX activity assay (Amplex Red fluorescence); assay type: biochemical; settings: 100 μM BAPN
T1 construct: endogenous in cells
T1 sequence (P28300 169-417): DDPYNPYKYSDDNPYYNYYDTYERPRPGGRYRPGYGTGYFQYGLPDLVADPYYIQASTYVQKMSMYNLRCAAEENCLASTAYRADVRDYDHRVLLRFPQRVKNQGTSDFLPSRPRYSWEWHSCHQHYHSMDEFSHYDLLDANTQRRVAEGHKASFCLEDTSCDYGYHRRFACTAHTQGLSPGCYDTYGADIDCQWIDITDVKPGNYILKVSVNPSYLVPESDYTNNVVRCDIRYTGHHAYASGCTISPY
Procedure: LOX Activity Assays: The LOX enzyme activity was measured using the Amplex Red fluorescence assay (AAA Bioquest, 15255), as previously described (15843371). The assay reaction mixture consisted of 50 mM sodium borate (pH 8.2), 1.2 M urea, 50 µM Amplex Red, 0.1 units/ml horseradish peroxidase, and 10 mM 1,5-diaminopentane (cadaverine) substrate. The protein samples were added to the reaction mix, in the presence or absence of 100 μM BAPN, which was then incubated at 37° C. for 30 minutes. The fluorescent product was measured at 590 nm using an […] microplate reader.

MRT cells (ATRT cells) [2] = test: Morphology of MRT/ATRT cells after BAPN treatment; assay type: cell-based, human
[3] = test system: Wilms' tumor (WT) Xn cells; test: MTS cell viability assay on Wilms' tumor Xn cells; assay type: cell-based, human; settings: Wilms' tumor Xn cells serially propagated in mice
Procedure: (§1) MTS—cell viability assay: 5×10^3 cells were plated in triplicates and grown in 96-well plates over-night. The following day the medium was changed and supplemented with various concentrations of BAPN and the cells were further incubated for 48 h. Cell proliferation was measured using CellTiter 96 Aqueous One Solution Cell Proliferation Assay (Promega) according to the manufacturer's instructions. Briefly, the cells were incubated with the MTS solution for 3 hours at 37° C. and absorbance at 492 nm was determined using a microplate reader. Three independent experiments were carried out.

MRT cells (ATRT cells) [4] = test: Cell migration assay (scrape); assay type: cell-based, human; settings: 100 μM BAPN, 48 h
Procedure: Cell migration assay: Cells were grown overnight, after which the medium was changed and supplemented with 100 μM BAPN. After 48 hours, a scrape was made through the confluent monolayers with a plastic 1 ml pipette tip. Treated and control cells were then photographed at identical time points (24 and 48 hours).

[5] = test system: ATRT Xn cells (MRT cells); test: MTS cell viability assay on MRT/ATRT Xn cells; assay type: cell-based, human; settings: 100 μM BAPN, 48 h
Procedure: as §1

[6] = intermediate Xn passage (P10) MRT cells

Compound: N#CCCN [BAPN, β-Aminopropionitrile]
- LOX activity (in words) [1]: significantly inhibited LOX activity
- inhibition of LOX activity ([1]; P3 cells): 81%
- inhibition of LOX activity ([1]; P10 cells): 63%
- morphological changes on ATRT cells (MRT cells (ATRT cells) [2]; P2 cells): nuclear condensation and cell swallowing
- morphological changes on MRT cells (MRT cells (ATRT cells) [2]; [6]): nuclear condensation and cell swallowing
- effect on WT cell proliferation [3]: no effect on WT cell proliferation
- ATRT cell migration capacity compared to un-treated cells (MRT cells (ATRT cells) [4]; P2 cells): significant inhibited
- MRT cell migration capacity compared to un-treated cells (MRT cells (ATRT cells) [4]; [6]): significant inhibited; also recorded: significantly inhibited
- proliferation in comparison to UT cells (MTS cell viability) ([5]; P2 Xn cells): 47%
- proliferation (MTS cell viability) ([5]; intermediate Xn passage (P10) cells, three different experiments): significantly reduced proliferation

— patent US10883994B2, “Identification of cancer stem cells markers and use of same for diagnosis and treatment” (Tel HaShomer Medical Research Infrastructure and Services …, priority 2014, dated 2021)
